In PubChem BioAssay (NCI) one finds TGI and GI50 data, which are given here for nine molecules.

Test systems include K-562 leukemia; HOP-62 NSCLC; UACC-257 melanoma; A549 NSCLC; 786-0 renal; SN12C renal; SF-539 CNS; IGROV1 ovarian; OVCAR-3 ovarian; UO-31 renal.
Holding throughout (assay): NCI-60 cell line screen, 48 h

Values joined by “and” are separate entries in the source; they are usually repeats but may differ in a detail not shown here. Equal values may be shown once.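 All cell lines were grown in 96-well plates and treated with compound for 48 hours. At the GI50, growth is halved. At the TGI there is no net growth.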

Regarding `O=C1c2cccc3cc([N+](=O)[O-])cc(c23)C(=O)N1CCNCCNCCNCCN1C(=O)c2cccc3cc([N+](=O)[O-])cc(c23)C1=O`, the TGI in the experiment on K-562 leukemia was 0.229 µM; in the experiment on HOP-62 NSCLC, 0.216 µM and 0.444 µM; in the experiment with UACC-257 melanoma, 0.184 µM and 0.334 µM; with A549 NSCLC it was 0.287 µM and 0.196 µM; with 786-0 renal it was 1.08 µM and 0.612 µM; with SN12C renal it was 2.77 µM and 2.65 µM. Moreover, the TGI was 0.304 µM and 0.357 µM with SF-539 CNS; 0.205 µM in the experiment with IGROV1 ovarian; 0.343 µM and 0.94 µM in the experiment with OVCAR-3 ovarian; 2.16 µM in the experiment with UO-31 renal. Moreover, the results for the GI50 in the experiment on UACC-257 melanoma and in the experiment with SN12C renal were 0.0979 µM and 36.7 nM, respectively.
Consider `CC(C)N(C(=O)C12C3C4C5(C#N)C3C1(I)C5C42I)C(C)C` (configuration not stated), for which the TGI in the experiment on K-562 leukemia was over 93.3 µM; with HOP-62 NSCLC, over 100 µM; in the experiment on UACC-257 melanoma, over 100 µM; in the experiment with A549 NSCLC it was over 100 µM; with 786-0 renal it was over 64.7 µM; with SN12C renal, over 100 µM. Moreover, the TGI in the experiment on SF-539 CNS, in the experiment with IGROV1 ovarian, in the experiment on OVCAR-3 ovarian and in the experiment with UO-31 renal was over 100 µM throughout.
`O=S(=O)([O-])c1cccc2cccc(N=Cc3ccccc3[O-])c12.O=S(=O)([O-])c1cccc2cccc(N=Cc3ccccc3[O-])c12.[O]=[U]=[O]`: the GI50 in the experiment with K-562 leukemia is 35.5 µM; in the experiment with HOP-62 NSCLC it was 42.6 µM; in the experiment with UACC-257 melanoma it was over 100 µM; in the experiment with A549 NSCLC, 44.4 µM; in the experiment with 786-0 renal, 33.7 µM; in the experiment on SN12C renal it was over 100000 nM. The GI50 with SF-539 CNS is 36.3 µM; with IGROV1 ovarian, 70.6 µM; in the experiment with OVCAR-3 ovarian, over 100 µM; in the experiment with UO-31 renal, 50.7 µM. Also, the TGI in the experiment with K-562 leukemia, in the experiment on HOP-62 NSCLC, in the experiment on UACC-257 melanoma, in the experiment on A549 NSCLC, in the experiment with 786-0 renal and with SN12C renal was over 100 µM each time. Moreover, the TGI with SF-539 CNS, in the experiment with IGROV1 ovarian, with OVCAR-3 ovarian and with UO-31 renal was over 100 µM throughout.
In the case of `N#Cc1c(C(=O)c2ccccc2)cnn1-c1ccccc1`, the GI50 with K-562 leukemia is over 25 µM; with HOP-62 NSCLC, over 25 µM; in the experiment with UACC-257 melanoma, over 25 µM; in the experiment with A549 NSCLC, over 25 µM; in the experiment with 786-0 renal it was over 25 µM; in the experiment on SN12C renal it was over 25000 nM. In addition, the GI50 with SF-539 CNS, in the experiment with IGROV1 ovarian, in the experiment with OVCAR-3 ovarian and in the experiment with UO-31 renal was over 25 µM in each case. Besides, the TGI in the experiment on K-562 leukemia, in the experiment on HOP-62 NSCLC, in the experiment on UACC-257 melanoma, in the experiment on A549 NSCLC, with 786-0 renal and with SN12C renal was over 25 µM in each case. The TGI in the experiment on SF-539 CNS, with IGROV1 ovarian, with OVCAR-3 ovarian and in the experiment on UO-31 renal was over 25 µM throughout.
`N#CC(C(=O)/C(=N/N)C(C#N)c1ccc(Cl)cc1)c1ccc(Cl)cc1` (configuration not stated): the TGI with K-562 leukemia, in the experiment with HOP-62 NSCLC, with UACC-257 melanoma, with A549 NSCLC, in the experiment on 786-0 renal and with SN12C renal was over 100 µM in each case. In addition, the TGI in the experiment on SF-539 CNS, in the experiment on IGROV1 ovarian, in the experiment with OVCAR-3 ovarian and with UO-31 renal was over 100 µM each time.
Consider `C/C(O)=C(\N=O)C(=O)NCCc1ccccc1`, for which the TGI in the experiment with K-562 leukemia, in the experiment on HOP-62 NSCLC, in the experiment with UACC-257 melanoma, in the experiment on A549 NSCLC, with 786-0 renal and with SN12C renal was over 100 µM in each case. Further, the TGI in the experiment with SF-539 CNS, with IGROV1 ovarian, in the experiment with OVCAR-3 ovarian and in the experiment with UO-31 renal was over 100 µM throughout.
On to `O=c1cc(C(F)(F)F)c2cc3c(cc2o1)NCCC3`, for which the TGI is over 100 µM in the experiment with K-562 leukemia; 42.8 µM in the experiment on HOP-62 NSCLC; over 100 µM in the experiment on UACC-257 melanoma; over 100 µM with A549 NSCLC; over 100 µM with 786-0 renal; over 100 µM in the experiment with SN12C renal. For the same molecule, the TGI in the experiment with SF-539 CNS, in the experiment on IGROV1 ovarian, in the experiment with OVCAR-3 ovarian and with UO-31 renal was over 100 µM each time.
With `CC1=C(/C=C/C(C)=C\C=C\C(C)=C\C(=O)Nc2ccc3c(c2)OCO3)C(C)(C)CCC1`, the GI50 is 7.56 µM in the experiment with K-562 leukemia; over 100 µM with HOP-62 NSCLC; 29.4 µM with UACC-257 melanoma; 84.8 µM in the experiment on A549 NSCLC; 40.2 µM in the experiment with 786-0 renal; over 100000 nM with SN12C renal. The GI50 is 51.3 µM in the experiment on SF-539 CNS, over 100 µM in the experiment on IGROV1 ovarian, over 100 µM in the experiment with OVCAR-3 ovarian and over 100 µM with UO-31 renal. Further, the TGI in the experiment on K-562 leukemia, with HOP-62 NSCLC, with UACC-257 melanoma, with A549 NSCLC, in the experiment on 786-0 renal and in the experiment on SN12C renal was over 100 µM in each case. Further, the TGI in the experiment with SF-539 CNS, in the experiment with IGROV1 ovarian, in the experiment on OVCAR-3 ovarian and in the experiment with UO-31 renal was over 100 µM throughout.
For the molecule `Nc1ccccc1C#C/C=C\C#Cc1ccccc1C(F)(F)F`, the GI50 is 1.07 µM with K-562 leukemia; 0.588 µM in the experiment on HOP-62 NSCLC; 0.536 µM in the experiment with UACC-257 melanoma; 0.722 µM in the experiment on A549 NSCLC; 0.545 µM in the experiment with 786-0 renal; 399 nM with SN12C renal. The GI50 in the experiment with SF-539 CNS is 0.669 µM; in the experiment on IGROV1 ovarian, 1.34 µM; with OVCAR-3 ovarian, 0.673 µM; in the experiment on UO-31 renal, 4.08 µM. Further, the TGI turned out to be 3.74 µM in the experiment on K-562 leukemia; 18.7 µM in the experiment with HOP-62 NSCLC; 23.7 µM in the experiment with UACC-257 melanoma; 15.5 µM in the experiment on A549 NSCLC; 16.7 µM with 786-0 renal; 9.45 µM in the experiment on SN12C renal. The TGI in the experiment with SF-539 CNS was 3.55 µM; in the experiment with IGROV1 ovarian it was over 55.8 µM; with OVCAR-3 ovarian it was 1.89 µM; with UO-31 renal it was 23.4 µM.
